Source: EP0646015B1, “CONTRACEPTIVE VACCINE” (THE UNIVERSITY OF CONNECTICUT, priority 1992, dated 1993)
Where “and” joins values, the source holds several entries; their conditions need not be identical. Equal values may be shown once.

Test system: sperm-egg fusion
Assay: sperm-egg fusion inhibition assay
Assay type: cell-based, guinea pig
Design: inhibits sperm-egg fusion / % Inhibition: concentration or dose not given beside the values
Procedure: The fusion inhibition assay was carried out as follows. Eggs were collected from guinea pig ovaries. The eggs were incubated in tissue culture medium overnight. The zona pellucida was removed with a mixture of proteases. The zona pellucida free eggs were incubated in culture media with peptide at a specified concentration for 30 minutes.
Sperm collected from the epididymis of male guinea pigs was capacitated by incubation and acrosome reacted as described by Fleming and Yanagimachi (Gamete Res. 4: 253-273 (1981)) and added to the eggs and incubated for 15 minutes. The eggs were then transferred to a sperm free culture medium and incubated for an additional 1 hour and 45 minutes. The eggs were then fixed and stained as described by Primakoff et al. (J. Cell. Biol. 104: 141 (1987)). The total number of swollen sperm heads were then counted. Swollen sperm heads are an indication that the sperm and egg have fused.
On the basis of these observations, several indices are calculated. The fertilization index (F.I.) is determined by dividing the total number of swollen heads by the total number of eggs. The fertilization rate (F.R.) is the percentage of eggs fertilized. The percent inhibition is determined by dividing the fertilization index of the experimental peptide by the fertilization index of the control peptide.

## CSTDEC
Table 4, TDE peptides compared with no peptide control
  F.R.: 8% and 11%
Table 4, relative to F.I. of no peptide control of the same experiment
  % Inhibition: 89% and 95%
Table 5, relative to F.I. of control peptide GRGES of the same experiment
  % Inhibition: 90% and 98%
Compared to no peptide or control peptide
  inhibition of sperm-egg fusion (in words): strongly inhibited
When the fertilization index is near the normal level of 1 sperm per egg, compared with no peptide (Table 4)
  inhibits sperm-egg fusion: 89%
